Results from patent publication US20170022201A1, “MACROCYLIC PYRIDINE DERIVATIVES” (Janssen Pharmaceutica NV, priority 2014, published 2017).

target: T1, eEF2K (Homo sapiens, UniProt O00418); test: EF2K cell-based assay (P-EF2 AlphaLISA, 2-deoxyglucose stimulated MCF10A cells); conditions: 2.5 mM 2-deoxyglucose 4 h, phosphorylation of EF2 at Thr 56, pIC50 = -log IC50 (M), read-out: eEF2K_C_PThr56 pIC50 (converted)
T1 construct: in the immortalized epithelial breast cell lines, MCF10A; host or cells: MCF10A immortalized breast epithelial cells
T1 sequence (O00418 1-725): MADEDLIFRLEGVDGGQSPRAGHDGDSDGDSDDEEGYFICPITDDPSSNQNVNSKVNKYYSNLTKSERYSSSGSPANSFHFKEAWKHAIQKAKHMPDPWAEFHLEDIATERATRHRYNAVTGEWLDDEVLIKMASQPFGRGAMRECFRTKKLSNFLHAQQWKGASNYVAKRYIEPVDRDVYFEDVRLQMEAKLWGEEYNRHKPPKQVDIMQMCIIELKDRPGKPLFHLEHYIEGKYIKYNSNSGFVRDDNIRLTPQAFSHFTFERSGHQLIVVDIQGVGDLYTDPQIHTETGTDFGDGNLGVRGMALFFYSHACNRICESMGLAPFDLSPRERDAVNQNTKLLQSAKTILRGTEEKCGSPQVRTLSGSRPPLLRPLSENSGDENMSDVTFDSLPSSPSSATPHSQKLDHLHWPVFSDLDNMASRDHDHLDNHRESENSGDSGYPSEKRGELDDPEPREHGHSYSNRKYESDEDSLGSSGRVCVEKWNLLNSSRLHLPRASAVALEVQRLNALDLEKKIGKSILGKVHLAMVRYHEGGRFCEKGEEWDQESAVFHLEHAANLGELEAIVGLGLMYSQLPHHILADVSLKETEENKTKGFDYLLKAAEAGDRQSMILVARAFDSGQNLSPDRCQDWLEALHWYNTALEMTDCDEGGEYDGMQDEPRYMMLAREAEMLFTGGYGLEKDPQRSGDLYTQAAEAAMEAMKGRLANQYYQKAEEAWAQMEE
Protocol: In this assay, 2.5 mM 2-deoxyglucose was used to deplete intracellular ATP and activate 5′ adenosine monophosphate-activated protein kinase (AMPK) in the immortalized epithelial breast cell lines, MCF10A. MCF 10A cells were purchased from ATCC (CRL-10317).
MCF10A cells are seeded at a density of 1.25×10^5 Cells/ml at 100 μl/well in a 96-well plate and incubated for 24 hours (37° C., 5% CO2). Compound is added for 1 hour, and cell are stimulated with 2.5 mM of 2-deoxy-glucose for 4 hours. Medium is then removed, and cells are lysed in an ice-cold buffer M-PER (Thermo Scientific, 78501), containing protease and phosphatase inhibitors. P-EF2 levels are determined in these lysates using the P-EF2 AlphaLISA described above.

Structure (SMILES) | IC50 [M]
O=C1CN2CCN(CC2)Cc2cccc(c2)Nc2cc(ccn2)-c2cnc(cn2)NCCCN1 [Compound 39] | 1.23e-05
CC1CN2CCN1Cc1cccc(c1)Nc1cc(ccn1)-c1cnc(nc1)NCCCNC(=O)C2 (stereo not drawn) [Compound 40] | ~5.89e-06
O=C1CN2CC3CCC(C2)N3Cc2cccc(c2)Nc2cc(ccn2)-c2cnc(nc2)NCCCN1 [Compound 41] | 1.7e-06
O=C1CN2C3CCC2CN(Cc2cccc(c2)Nc2cc(ccn2)-c2cnc(nc2)NCCCN1)C3 [Compound 42] | ~2.29e-06
O=C1NCCC2CC(O)CN2c2ncc(cn2)-c2ccnc(c2)Nc2cccc(c2F)CN2CCN(CC2)C12CC2 (stereo not drawn) [Compound 53] | 8.51e-08
O=C1NCCC2CC(O)CN2c2ncc(cn2)-c2ccnc(c2)Nc2cccc(c2)CN2CCN(CC2)C12CC2 (stereo not drawn) [Compound 56] | 3.02e-07
O=C1NCCC2CC(O)CN2c2ncc(cn2)-c2ccnc(c2)Nc2cccc(c2)CN2CCN(CC2)C12CC2 (stereo not drawn) [Compound 57] | 3.09e-07

Other lines, results leading:

IC50 [M] | Structure (SMILES)
8.71e-06 | O=C1CN2CCN(Cc3cccc(c3)Nc3cc(ccn3)-c3cnc(nc3)N3CCCC3CCN1)C(CO)C2 (stereo not drawn) [Compound 44]
6.46e-07 | O=C1CN2CCN(Cc3cccc(c3)Nc3cc(ccn3)-c3cnc(nc3)N3CCCC3CCN1)C(CO)C2 (stereo not drawn) [Compound 46]
4.17e-07 | CC1CN2CCN1Cc1cccc(c1)Nc1cc(ccn1)-c1cnc(nc1)N1CCCC1CCNC(=O)C2 (stereo not drawn) [Compound 47]
3.16e-06 | CC1CN2CCN1Cc1cccc(c1)Nc1cc(ccn1)-c1cnc(nc1)N1CCCC1CCNC(=O)C2 (stereo not drawn) [Compound 48]
7.94e-07 | O=C1CN2CCN(CC2)Cc2cccc(c2)Nc2cc(ccn2)-c2cnc(nc2)N2CC(O)CC2CCN1 (stereo not drawn) [Compound 54]
7.76e-07 | O=C1CN2CCN(CC2)Cc2cccc(c2)Nc2cc(ccn2)-c2cnc(nc2)N2CC(O)CC2CCN1 (stereo not drawn) [Compound 55]
8.51e-07 | CC1CN2CCN1Cc1cccc(c1)Nc1cc(ccn1)-c1cnc(nc1)N1CC(O)CC1CCNC(=O)C2 (stereo not drawn) [Compound 59]
4.79e-06 | CC1CN2CCN1Cc1cccc(c1)Nc1cc(ccn1)-c1cnc(nc1)N1CC(O)CC1CCNC(=O)C2 (stereo not drawn) [Compound 60]
4.27e-07 | CC1CN2CCN1Cc1cccc(c1)Nc1cc(ccn1)-c1cnc(nc1)N1CC(O)CC1CCNC(=O)C2 (stereo not drawn) [Compound 61]

target: PIK3C3 lipid kinase (Homo sapiens, UniProt Q8NEB9); test: Biochemical Vps34 lipid kinase assay (ADP-Glo); conditions: 1 h, single dose 1 μM; residual activity compared to control (DMSO); 20 μM ATP; read-out: VPS34_1microM_%ofcntrl
Protocol: A non-radiometric kinase assay (ADP-Glo™ Assay, Promega, Madison, Wi, USA) was used for measuring the kinase activity of the PIK3C3 lipid kinase. All kinase assays were performed in 96-well half-area microtiter plates in a 25 μl reaction volume. The reaction cocktail was pipetted in 3 steps in the following order: • 10 μl of ATP solution (in assay buffer, see below) • 5 μl of test sample in 5% DMSO 10 μl of enzyme/substrate mixture
All lipid kinase assays contained 50 mM HEPES (4-(2-hydroxyethyl)-1-piperazineethanesulfonic acid)—NaOH, pH 7.5, 1 mM EGTA ((ethylene glycol tetraacetic acid), 100 mM NaCl, 0.03% CHAPS (3-[(3-Cholamidopropyl) dimethylammonio]-1-propanesulfonate), 2 mM DTT (Dithiothreitol), 20 μM ATP (corresponding to the apparent ATP-Km), kinase (7.6 nM) and substrate (50 μM). The assay for PIK3C3 additionally contained 3 mM MnCl2.
The reaction cocktails were incubated at 30° C. for 60 minutes. The reaction was stopped with 25 μl ADP-Glo™ reagent per well. Plates were incubated for 40 minutes at room temperature, followed by addition of 50 μl kinase detection reagent per well and incubation for 60 minutes at room temperature. Signal was determined with a microplate luminescence reader (Victor, Perkin Elmer). The assay was either performed using a single dose of compound (1 μM final concentration in the assay reaction) with resulting data expressed as residual activity compared to control (DMSO), or using a serial (half-log) dilution of compounds starting at 10 μM and down to 0.3 nM (final concentrations in the assay) with data expressed as the pIC50.

Chain of PIK3C3 lipid kinase (Q8NEB9 whole entry): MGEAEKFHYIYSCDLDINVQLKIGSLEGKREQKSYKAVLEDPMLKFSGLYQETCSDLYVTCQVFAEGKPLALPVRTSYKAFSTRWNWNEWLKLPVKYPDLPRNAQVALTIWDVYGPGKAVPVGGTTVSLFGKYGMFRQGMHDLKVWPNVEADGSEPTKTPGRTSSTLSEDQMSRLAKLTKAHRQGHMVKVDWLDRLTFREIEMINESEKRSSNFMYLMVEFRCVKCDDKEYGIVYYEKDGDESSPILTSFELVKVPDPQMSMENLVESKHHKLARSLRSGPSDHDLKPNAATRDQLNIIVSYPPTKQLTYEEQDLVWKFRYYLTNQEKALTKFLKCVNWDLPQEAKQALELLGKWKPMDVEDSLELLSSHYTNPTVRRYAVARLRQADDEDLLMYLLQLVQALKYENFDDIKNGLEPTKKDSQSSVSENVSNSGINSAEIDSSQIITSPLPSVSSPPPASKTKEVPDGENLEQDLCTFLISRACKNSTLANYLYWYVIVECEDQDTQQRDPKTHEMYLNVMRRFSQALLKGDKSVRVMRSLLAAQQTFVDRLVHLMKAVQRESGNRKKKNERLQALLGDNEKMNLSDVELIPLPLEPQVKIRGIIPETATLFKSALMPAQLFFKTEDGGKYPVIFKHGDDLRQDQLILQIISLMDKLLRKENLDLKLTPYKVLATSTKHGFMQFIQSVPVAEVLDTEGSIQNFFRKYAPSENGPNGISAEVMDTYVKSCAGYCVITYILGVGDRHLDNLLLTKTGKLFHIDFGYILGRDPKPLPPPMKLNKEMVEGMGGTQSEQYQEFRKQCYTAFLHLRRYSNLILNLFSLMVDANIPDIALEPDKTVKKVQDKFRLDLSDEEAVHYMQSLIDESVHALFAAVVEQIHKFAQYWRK

Structure (SMILES) | remaining activity at 1 µM [%]
O=C1CN2CCN(CC2)Cc2cccc(c2)Nc2cc(ccn2)-c2cnc(cn2)NCCCN1 [Compound 39] | 45.7
CC1CN2CCN1Cc1cccc(c1)Nc1cc(ccn1)-c1cnc(nc1)NCCCNC(=O)C2 (stereo not drawn) [Compound 40] | 11
O=C1CN2CC3CCC(C2)N3Cc2cccc(c2)Nc2cc(ccn2)-c2cnc(nc2)NCCCN1 [Compound 41] | 23.3

The remaining lines, values ahead:

remaining activity at 1 µM [%] | Structure (SMILES)
44.1 | CC1CN2CCN1Cc1cccc(c1)Nc1cc(ccn1)-c1cnc(nc1)N1CCCC1CCNC(=O)C2 (stereo not drawn) [Compound 48]
29.6 | O=C1CN2CCN(CC2)Cc2cccc(c2)Nc2cc(ccn2)-c2cnc(nc2)N2CC(O)CC2CCN1 (stereo not drawn) [Compound 55]
86.8 | CC1CN2CCN1Cc1cccc(c1)Nc1cc(ccn1)-c1cnc(nc1)N1CC(O)CC1CCNC(=O)C2 (stereo not drawn) [Compound 60]

same assay, conditions: serial dilution 10 μM to 0.3 nM; 20 μM ATP; pIC50 = -log IC50 (M)

Structure (SMILES) | IC50 [M]
CC1CN2CCN1Cc1cccc(c1)Nc1cc(ccn1)-c1cnc(nc1)NCCCNC(=O)C2 (stereo not drawn) [Compound 40] | 2.63e-07
O=C1CN2CC3CCC(C2)N3Cc2cccc(c2)Nc2cc(ccn2)-c2cnc(nc2)NCCCN1 [Compound 41] | 7.41e-07
O=C1CN2C3CCC2CN(Cc2cccc(c2)Nc2cc(ccn2)-c2cnc(nc2)NCCCN1)C3 [Compound 42] | 7.08e-07
O=C1NCCC2CC(O)CN2c2ncc(cn2)-c2ccnc(c2)Nc2cccc(c2F)CN2CCN(CC2)C12CC2 (stereo not drawn) [Compound 53] | 1.78e-07
O=C1NCCC2CC(O)CN2c2ncc(cn2)-c2ccnc(c2)Nc2cccc(c2)CN2CCN(CC2)C12CC2 (stereo not drawn) [Compound 56] | 2.63e-07
O=C1NCCC2CC(O)CN2c2ncc(cn2)-c2ccnc(c2)Nc2cccc(c2)CN2CCN(CC2)C12CC2 (stereo not drawn) [Compound 57] | 5.01e-06

Further lines, results first:

IC50 [M] | Structure (SMILES)
1.55e-06 | O=C1CN2CCN(Cc3cccc(c3)Nc3cc(ccn3)-c3cnc(nc3)N3CCCC3CCN1)C(CO)C2 (stereo not drawn) [Compound 44]
2.34e-06 | O=C1CN2CCN(Cc3cccc(c3)Nc3cc(ccn3)-c3cnc(nc3)N3CCCC3CCN1)C(CO)C2 (stereo not drawn) [Compound 46]
9.12e-06 | CC1CN2CCN1Cc1cccc(c1)Nc1cc(ccn1)-c1cnc(nc1)N1CCCC1CCNC(=O)C2 (stereo not drawn) [Compound 47]
9.77e-06 | O=C1CN2CCN(CC2)Cc2cccc(c2)Nc2cc(ccn2)-c2cnc(nc2)N2CC(O)CC2CCN1 (stereo not drawn) [Compound 54]
5.5e-07 | O=C1CN2CCN(CC2)Cc2cccc(c2)Nc2cc(ccn2)-c2cnc(nc2)N2CC(O)CC2CCN1 (stereo not drawn) [Compound 55]
4.17e-07 | CC1CN2CCN1Cc1cccc(c1)Nc1cc(ccn1)-c1cnc(nc1)N1CC(O)CC1CCNC(=O)C2 (stereo not drawn) [Compound 59]

same assay, conditions: single dose 1 μM; residual activity compared to control (DMSO); 20 μM ATP

VPS34_1microM_%ofcntrl [%] | Structure (SMILES)
80.70 | CC1CN2CCN1Cc1cccc(c1)Nc1cc(ccn1)-c1cnc(nc1)N1CC(O)CC1CCNC(=O)C2 (stereo not drawn) [Compound 61]

target: T2, EF2K (Homo sapiens, UniProt O00418); test: Biochemical EF2K lysate-based kinase assay (AlphaLISA p-eEF2 Thr56); conditions: LN-229 cell lysates, 10 mM ATP, pH 6.6; pIC50 = -log IC50 (M); read-out: eEF2K_C_alphalisa pIC50 (converted)
T2 construct: host or cells: LN-229 glioblastoma cell lysate
T2 sequence (O00418 1-725): T1 sequence (O00418 1-725)
Excerpt: LN-229 cells were purchased from ATCC (CRL-2611); these are glioblastoma cells. Cell lysates from LN229 were used in this kinase assay to provide both the kinase and the substrate (EF2). The AlphaLISA p-eEF2 (Thr56) detection assay was developed using a sandwich assay format with two specific antibodies recognizing different epitopes of the target, including one antibody against the phosphorylation site of interest. One anti-eEF2 antibody was conjugated onto AlphaLISA Acceptor beads, while the second antibody was biotinylated and captured by streptavidin coated Donor beads.
Compound was mixed with LN-229 cell lysates in the presence of a kinase buffer (e.g. HEPES) at a pH of 6.6, containing 10 mM Mg^2+ (e.g. magnesium acetate) and 10 mM adenosine-tri-phosphate (ATP) and incubated at room temperature for 15 minutes. The kinase reaction was stopped with excess ethylenediaminetetraacetic acid disodium salt and the biotinylated-anti phospho eEF2 antibody (3 nM) was added for 1 hour. Then the anti-EF2 acceptor beads (10 μg/ml) as well as the streptavidin coated donor beads (20 μg/ml) were added for 1 hour, and the AlphaLISA signal was measured in an Envision instrument once, left overnight, and measured again for the final read.

Structure (SMILES) | IC50 [M]
O=C1CN2CCN(CC2)Cc2cccc(c2)Nc2cc(ccn2)-c2cnc(cn2)NCCCN1 [Compound 39] | 2.75e-07
CC1CN2CCN1Cc1cccc(c1)Nc1cc(ccn1)-c1cnc(nc1)NCCCNC(=O)C2 (stereo not drawn) [Compound 40] | 1.62e-07
O=C1CN2CC3CCC(C2)N3Cc2cccc(c2)Nc2cc(ccn2)-c2cnc(nc2)NCCCN1 [Compound 41] | 1.05e-07
O=C1CN2C3CCC2CN(Cc2cccc(c2)Nc2cc(ccn2)-c2cnc(nc2)NCCCN1)C3 [Compound 42] | 9.77e-08
O=C1NCCC2CC(O)CN2c2ncc(cn2)-c2ccnc(c2)Nc2cccc(c2F)CN2CCN(CC2)C12CC2 (stereo not drawn) [Compound 53] | 4.07e-09
O=C1NCCC2CC(O)CN2c2ncc(cn2)-c2ccnc(c2)Nc2cccc(c2)CN2CCN(CC2)C12CC2 (stereo not drawn) [Compound 56] | 3.39e-09
O=C1NCCC2CC(O)CN2c2ncc(cn2)-c2ccnc(c2)Nc2cccc(c2)CN2CCN(CC2)C12CC2 (stereo not drawn) [Compound 57] | 1.02e-08

Next, values leading:

IC50 [M] | Structure (SMILES)
2.45e-08 | O=C1CN2CCN(Cc3cccc(c3)Nc3cc(ccn3)-c3cnc(nc3)N3CCCC3CCN1)C(CO)C2 (stereo not drawn) [Compound 44]
1.32e-08 | O=C1CN2CCN(Cc3cccc(c3)Nc3cc(ccn3)-c3cnc(nc3)N3CCCC3CCN1)C(CO)C2 (stereo not drawn) [Compound 46]
8.51e-09 | CC1CN2CCN1Cc1cccc(c1)Nc1cc(ccn1)-c1cnc(nc1)N1CCCC1CCNC(=O)C2 (stereo not drawn) [Compound 47]
7.94e-08 | CC1CN2CCN1Cc1cccc(c1)Nc1cc(ccn1)-c1cnc(nc1)N1CCCC1CCNC(=O)C2 (stereo not drawn) [Compound 48]
1.1e-08 | O=C1CN2CCN(CC2)Cc2cccc(c2)Nc2cc(ccn2)-c2cnc(nc2)N2CC(O)CC2CCN1 (stereo not drawn) [Compound 54]
8.51e-09 | O=C1CN2CCN(CC2)Cc2cccc(c2)Nc2cc(ccn2)-c2cnc(nc2)N2CC(O)CC2CCN1 (stereo not drawn) [Compound 55]
3.47e-08 | CC1CN2CCN1Cc1cccc(c1)Nc1cc(ccn1)-c1cnc(nc1)N1CC(O)CC1CCNC(=O)C2 (stereo not drawn) [Compound 59]
6.61e-08 | CC1CN2CCN1Cc1cccc(c1)Nc1cc(ccn1)-c1cnc(nc1)N1CC(O)CC1CCNC(=O)C2 (stereo not drawn) [Compound 60]
1.26e-08 | CC1CN2CCN1Cc1cccc(c1)Nc1cc(ccn1)-c1cnc(nc1)N1CC(O)CC1CCNC(=O)C2 (stereo not drawn) [Compound 61]
